Structures can show the parent of a compound that is named as a salt.
What was measured:
Axl enzyme = biological target: T1, Axl enzyme (Homo sapiens, UniProt P30530); experiment: Measurement of Axl inhibitory activity (in vitro test, LanthaScreen TR-FRET); type: biochemical; conditions: Fluorescein-Poly GT substrate, ATP, read-out: Axl enzyme inhibitory activity, value of 50% inhibition rate (IC50 value)
T1 sequence (P30530 26-894): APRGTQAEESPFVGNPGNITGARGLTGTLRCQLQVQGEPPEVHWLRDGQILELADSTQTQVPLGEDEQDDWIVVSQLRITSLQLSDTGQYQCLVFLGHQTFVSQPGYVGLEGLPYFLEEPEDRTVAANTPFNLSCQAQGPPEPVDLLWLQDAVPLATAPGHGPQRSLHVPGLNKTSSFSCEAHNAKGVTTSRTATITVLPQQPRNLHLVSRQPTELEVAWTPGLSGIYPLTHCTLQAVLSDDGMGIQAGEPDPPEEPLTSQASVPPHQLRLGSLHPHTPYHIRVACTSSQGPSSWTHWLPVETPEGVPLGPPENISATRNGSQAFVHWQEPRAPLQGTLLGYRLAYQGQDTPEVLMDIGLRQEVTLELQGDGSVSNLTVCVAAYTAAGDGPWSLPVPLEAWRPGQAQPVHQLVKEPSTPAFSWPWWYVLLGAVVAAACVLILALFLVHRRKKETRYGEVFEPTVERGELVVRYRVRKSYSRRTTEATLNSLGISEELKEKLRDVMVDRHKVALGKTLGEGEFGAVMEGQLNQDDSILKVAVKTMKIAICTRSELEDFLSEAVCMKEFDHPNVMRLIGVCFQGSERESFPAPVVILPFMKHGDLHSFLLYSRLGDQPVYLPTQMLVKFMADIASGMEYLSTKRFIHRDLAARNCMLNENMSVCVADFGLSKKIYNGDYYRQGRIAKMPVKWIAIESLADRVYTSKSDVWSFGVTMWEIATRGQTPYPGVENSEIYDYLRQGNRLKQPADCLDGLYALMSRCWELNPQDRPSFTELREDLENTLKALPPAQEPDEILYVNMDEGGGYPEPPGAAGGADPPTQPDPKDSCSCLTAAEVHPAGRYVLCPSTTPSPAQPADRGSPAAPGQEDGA
Procedure: Measurement of Axl Inhibitory Activity (In Vitro Test)
The Axl enzyme inhibitory activity was measured by using LanthaScreen (registered trademark) system (Invitrogen) based on the attached instruction. The reagents used are shown below.
Reaction buffer solution: A solution containing 50 mmol/L HEPES (pH7.5), 0.01% Brij35, 10 mmol/L MgCl2 and 1 mmol/L EGTA was prepared by using purified water.
Test substance solution: A solution containing a test compound of 5-fold concentration with respect to the final concentration was prepared by 20-fold diluting a DMSO solution of the test compound of each concentration with the reaction buffer solution.
Enzyme solution: A solution containing 400 ng/mL Axl enzyme was prepared by using the reaction buffer solution.
Substrate solution: A solution containing 45 μmmol/L ATP and 500 nmmol/L Fluorescein-Poly GT (Invitrogen) was prepared by using the reaction buffer solution.
Detection solution: A solution containing 20 mM EDTA and 4 nM PY20 (Invitrogen) was prepared by using Dilution B (Invitrogen).
A 10 mmol/L DMSO solution of the test compound was dispensed into a 96-well plate (Nunc), and, furthermore, a 3-fold dilution series was prepared using DMSO. In each well of the 96-well plate for measurement, 5 μL each of the reaction buffer solution containing DMSO was added to a Blank group and a medium group, and 5 μL of the test substance solution was added to the test substance group, respectively. […] After standing still, fluorescence intensity at 520 nm and 495 nm at the time of irradiation with exciting light of 340 nm was measured by using Analyst GT (Molecular Devices). The phosphorylation of the artificial substrate was quantified by Time-resolved Fluorescence Resonance Energy Transfer (TR-FRET). The TR-FRET ratio was calculated by dividing 520 nm fluorescence signal by 495 nm fluorescence signal for each well, and the inhibition rate (%) in the test compound group was calculated based on the following mathematical formula. […]

Ba/F3 Axl = experiment: Measurement of proliferation suppression rate using mouse pro-B cell line (Ba/F3 Axl) stably expressing Axl; type: cell-based; conditions: BaF3, Ba/F3 Axl cells, 48 hours, CELLTITER-GLO, read-out: Proliferation suppression, value of 50% inhibition rate (IC50 value)
Procedure: Measurement of Proliferation Suppression Rate by Using Mouse Pro-B Cell Line (Ba/F3 Axl) Stably Expressing Axl
A 0.1 mmol/L DMSO solution of the test compound was dispensed into a 96-well plate, and further a 3-fold dilution series was prepared using DMSO. DMSO solutions of test compounds, having various concentrations, were further 500-fold diluted with a RPMI1640 medium (containing 10% HI-FBS and 1% penicillin) and a diluted solution of the test compound having […] with respect to the final concentration was prepared. In each well of the 96-well plate (BD Biosciences) for measurement, 50 μL of a RPMI medium was added to the Blank group, 50 μL of a RPMI medium containing 0.2% DMSO was added to the medium group, and 50 μL of the diluted solution of the test compound was added to the test compound group, respectively. Ba/F3 Axl was diluted with a medium to have a density of 2×10^5 cells/mL to prepare a cell suspension. In each well of the 96-well plate for measurement, 50 μL each of the RPMI medium was added to the Blank group, and 50 μL each of the cell suspension was added to the medium group and the test compound group, respectively, and the groups were stood still at 37° C. at 5% CO2 for 48 hours. After standing still, Relative Light Unit (RLU) was measured by using CELLTITER-GLO (registered trademark) LUMINESCENT CELL VIABILITY ASSAY (Promega). The measurement was carried out according to the attached instruction. To each well, 100 μL each of light-emitting solution was added. The plate was stirred at room temperature for 3 min and then stood still at room temperature with light shielded for 10 minutes, and RLU was measured by using Microplate Reader (SpectraMax M5e, Molecular Devices). The average values of RLU of the Blank group and the medium group were respectively calculated, and the proliferation suppression rate of the test compound group was calculated. Proliferation suppression rate (%)={1−(RLU of test compound group−A)/(B−A)}×100 [Math. 2] A: Average value of RLU of Blank group B: Average value of RLU of medium group […]

In the case of `CC#CC(=O)NCc1ccc(C(=O)Nc2ccc(-c3cn(C)c4ncnc(N)c34)cc2)c(=O)n1-c1ccccc1` [Example 26, N-[4-(4-amino-7-methyl-7H-pyrrolo[2,3-d]pyrimidine-5-yl)phenyl]-6-[(2-butynoylamino)methyl]-2-oxo-1-phenyl-1,2-dihydro-3-pyridinecarboxamide], the IC50 (Axl enzyme) is reported as 1.7 nM and the IC50 (Ba/F3 Axl) is reported as 0.8 nM.

Compound `Cn1cc(-c2ccc(NC(=O)c3cc(C(F)(F)F)cn(-c4ccccc4)c3=O)cc2)c2c(N)ncnc21` [Example 30, N-[4-(4-amino-7-methyl-7H-pyrrolo[2,3-d]pyrimidin-5-yl)phenyl]-2-oxo-1-phenyl-5-(trifluoromethyl)-1,2-dihydro-3-pyridinecarboxamide trifluoroacetate] has an IC50 (Axl enzyme) of 8 nM and an IC50 (Ba/F3 Axl) of 10.6 nM.

`Cn1cc(-c2ccc(NC(=O)c3cc4c(n(-c5ccccc5)c3=O)CC3(CC3)CC4=O)nc2)c2c(N)ncnc21` [Example 45(24), N-[5-(4-amino-7-methyl-7H-pyrrolo[2,3-d]pyrimidin-5-yl)-2-pyridinyl]-2′,5′-dioxo-1′-phenyl-2′,5′,6′,8′-tetrahydro-1′H-spiro[cyclopropane-1,7′-quinoline]-3′-carboxamide] showed an IC50 (Axl enzyme) of 9.7 nM and an IC50 (Ba/F3 Axl) of 7 nM.

— patent US9586967B2, “Pyrrolo pyrimidine derivative” (ONO PHARMACEUTICAL CO., LTD., priority 2013, dated 2017)
